The values that follow are results of earlier work, collected in publication PMC11599114 (Viruses, 2024).

One series deals with Measles virus(MeV). To be noted: VERO/hSLAM.
The test system of series [1] is SARS-CoV-2. To be noted: SARS-CoV-2, Vero.
Series [2] relates to influenza virus(H1N1,VR-1894). To be noted: H1N1 VR-1894, MDKC.
The next series deals with HSV-1. To be noted: HSV-1, Vero.
The test system of series [3] is SARS-CoV-2. Also on record: method as in 3 sources. To be noted: SARS-CoV-2 infection, Vero E6.
For series [4], the system named is SARS-CoV. To be noted: for inhibition: 100 µM.
The test system of another series is influenza A virus(H1N1). The arrangement: method as in 2 sources. To be noted: for IC50: A(H1N1), MDCK.
Series [5] relates to HCoV-229E. To be noted: Vero.
A further series relates to HSV-2. To be noted: HSV-2, Vero.
The test system of the next series is HCoV-OC43. To be noted: HCoV-OC43, Vero.
The test system of the next series is HPIV-3. To be noted: HPIV-3, Vero.
The test system of series [6] is SARS-CoV.
The subject of the next series is A/Roma-ISS/02/08 H1N1. To be noted: A/Roma-ISS/02/08 H1N1, MDCK.
For another series, the system named is influenza A virus(H3N2). The arrangement: method as in 2 sources.
The subject of series [7] is SARS-CoV-2. Also on record: method as in ref 35663971. To be noted: SARS-CoV-2, Huh7, at 10 μM.
The test system of the next series is HSV. Also on record: method as in ref 35663971. To be noted: Huh7, at 10 μM.
The test system of another series is Dengue virus 2(DENV2). The arrangement: method as in ref 35663971. To be noted: DENV2, Huh7, at 10 μM.
A further series has as its system influenza B virus. The arrangement: method as in ref 35259078. To be noted: FluB, MDCK.
A further series relates to SARS-CoV-2(Delta). The arrangement: method as in ref 35259078. To be noted: Vero E6.
The subject of a further series is SARS-CoV-2 (HKU001a). Also on record: method as in ref 35259078. To be noted: Vero E6.
Series [8] deals with human parainfluenza virus 3 (HPIV3). The arrangement: method as in ref 16973588. To be noted: HPIV3 fusion, HeLa.
In series [9] the test system is Hendra virus(HeV).
For series [10], the system named is Hendra virus(HeV). The source holds these as a separate data set.
Series [11] deals with human parainfluenza virus 3 (HPIV3). Also on record: method as in ref 16973588. To be noted: HPIV3 infection, HeLa.
The subject of series [12] is SARS-CoV-2. Also on record: method as in 3 sources. To be noted: SARS-CoV-2 PsV, Huh-7.
The test system of series [13] is SARS-CoV-2. The arrangement: method as in 3 sources. To be noted: SARS-CoV-2 S-mediated fusion.
In series [14] the test system is SARS-CoV. The source holds these as a separate data set.
The subject of series [15] is HCoV-229E.
The subject of another series is A/Parma0/5/06 H3N2. To be noted: A/Parma0/5/06 H3N2, MDCK.

Where two headings read alike, the source gives them in different places. A value given as a limit tells only on which side of the number the result lay.

In the case of CFVPWFSKFlXRIL [DRAVPe00391], the IC90 with Measles virus(MeV) is 31.1 µM; with SARS-CoV-2 [1], 1.89 µM; in series [2], 5.89 µM; in the series with HSV-1, 2.19 µM.

For CGGFVPWFSKFlXRIL [DRAVPe00392], the IC90 with Measles virus(MeV) is 49.9 µM; in the series on SARS-CoV-2 [1] it was 10.2 µM; in series [2], 9.9 µM; with HSV-1, 8.21 µM.

For the substance “DEDLEELERLYRKAEEVAKEAKDASRRGDDERAKEQMERAMRLFDQVFELAQELQEKQTDGNRQKATHLDKAVKEAADELYQRVR [DRAVPe00480]”, the IC50 with SARS-CoV-2 [3] was 0.035 µM.

For the substance EEQAKTFLDK [DRAVPe01627], the inhibition with SARS-CoV [4] was 25%.

For the substance “EEQAKTFLDKFNHEAEDLFYQSSGLGKGDFR [DRAVPe01632]”, the IC50 with SARS-CoV [4] was 0.1 µM.

For the substance “ELEEQVMHVLDQVSELAHELLHKLTGEELERAAYFNWWATEMMLELIKSDDEREIREIEEEARRILEHLEELARK [DRAVPe00481]”, in the series with SARS-CoV-2 [3], the IC50 was 0.0155 µM.

Take FINGRWDSQCHRFSNGAIACA [DRAVPe01800]: the IC50 in the series on influenza A virus(H1N1) was 6.6 µg/mL.

With FVPWFSKFlKRIL [DRAVPe00383], the IC90 in the series with HCoV-229E [5] was 50 µM; with HSV-2, 7.99 µM; in the series with HCoV-OC43 it was 16.3 µM; with SARS-CoV-2 [1], 12.9 µM; in the series with HPIV-3 it was above 50 µM; in the series on HSV-1, 10.5 µM.

As for FVPWFSKFlXRIL [DRAVPe00380], the IC90 in the series with HCoV-229E [5] is above 50 µM; in the series on HSV-2, 19 µM; in the series with HCoV-OC43, 27.7 µM; in the series with SARS-CoV-2 [1] it was 25 µM; in the series on HSV-1, 15.9 µM.

FVPWFSKFlXRILC [DRAVPe00389]: the IC90 was above 50 µM in the series on Measles virus(MeV), 12 µM in the series on SARS-CoV-2 [1], 10 µM in [2] and 11.1 µM in the series with HSV-1.

With FVPWFSKFlXRILGGC [DRAVPe00390], the IC90 was above 50 µM in the series with Measles virus(MeV), 50 µM in the series with SARS-CoV-2 [1], 49.9 µM in series [2] and 48 µM in the series with HSV-1.

For FVPWFSKFlkRIL [DRAVPe00384], the IC90 in the series on HCoV-229E [5] was 50 µM; in the series with HSV-2 it was 12.5 µM; in the series on HCoV-OC43, 29.2 µM; in the series with SARS-CoV-2 [1] it was 25.3 µM; in the series on HPIV-3 it was above 50 µM; in the series on HSV-1, 12.7 µM.

For FVPWFSKFlwRIL [DRAVPe00386], the IC90 was 50 µM in the series with HCoV-229E [5]; 9.76 µM in the series with HSV-2; 17.4 µM in the series on HCoV-OC43; 14.8 µM with SARS-CoV-2 [1]; 7.89 µM in the series with HSV-1.

Take FVPWFSKFlxRIL [DRAVPe00382]: the IC90 in the series with HCoV-229E [5] is above 50 µM; in the series with HSV-2 it was 11.9 µM; in the series on HCoV-OC43, 24.7 µM; in the series with SARS-CoV-2 [1], 17.4 µM; with HSV-1, 12.8 µM.

GYFVQDDGEWKFTGSSYYY [DRAVPe01421]: the IC50 with SARS-CoV [6] was 4 µM.

Consider IPLRGAFINGRWDSQCHRFS [DRAVPe01801], for which the IC50 in the series with influenza A virus(H1N1) was 12.9 µg/mL.

KANEGLTWNSLKDK [DRAVPe01644]: in the series on A/Roma-ISS/02/08 H1N1, the EC50 was 0.001 ± 0.00015 µM.

KFFRKKSVKK [DRAVPe01822]: the EC50 was 5.2 ± 0.9 µM with influenza A virus(H1N1) (H1N1, MDCK) and 7.36 ± 1.2 µM with influenza A virus(H3N2) (H3N2, MDCK).

Turning to KKKKYRNIRRPG [AVP1641], the Activity with SARS coronavirus is 45 µg/mL.

Regarding MGRFKRFRKKFKKLFKKLS [DRAVPe01948], the inhibition in the series with SARS-CoV-2 [7] was 80%; in the series on HSV it was 50%; in the series with Dengue virus 2(DENV2), 50%.

Regarding NHEAEDLFY [DRAVPe01629], the inhibition in the series on SARS-CoV [4] is 30%.

On to RGAHIKGRWKSRCHRF [DRAVPe01802], for which the IC50 in the series with influenza A virus(H1N1) was 3.9 µg/mL; with influenza B virus it was 7.1 µg/mL; in the series on SARS-CoV-2(Delta), 3.9 µg/mL; in the series with influenza A virus(H3N2) (A(H3N2), MDCK) it was 1.6 µg/mL; in the series with SARS-CoV-2 (HKU001a), 2.9 µg/mL.

For the substance “SIELNKAKSDLEESKEWIRRSNQKLDSI [DRAVPe01316]”, the IC50 in series [8] is above 10 µM; with Hendra virus(HeV) [9], above 1 µM; in the series with Hendra virus(HeV) [10], above 10 µM; in [11], above 10 µM.

For the substance “SLDYINVTFLDLQDEMNRLQEAIKVLNQSYINLKDI [DRAVPe00419]”, the IC50 is 0.416 ± 0.228 µM in the series with HCoV-NL63; 0.0828 ± 0.0221 µM in the series with SARS-CoV-2 [12]; 0.0041 ± 0.001 µM with SARS-CoV-2 [13]; 0.25 µM in the series on SARS-CoV [14]; 0.0052 µM in the series with MERS-CoV; 2.01 ± 0.698 µM with HCoV-229E [15].

For the substance TNGESTADWAKN [DRAVPe01645], the EC50 in the series with A/Roma-ISS/02/08 H1N1 was 0.4 ± 2e-05 µM; with A/Parma0/5/06 H3N2, 0.01 µM.

Take “VALDPIDISIELNKAKSDLEESKEWIRR [DRAVPe01315]”: the IC50 in series [8] is above 10 µM; in the series with Hendra virus(HeV) [9], above 1 µM; in the series with Hendra virus(HeV) [10], above 10 µM; in series [11] it was above 10 µM.

For “VANDPIDISIELNKAKSDLEESKEWIRRSNQKLDSD [DRAVPe01314]”, the IC50 in [8] is 0.75 µM; with Hendra virus(HeV) [9], above 1 µM; in the series on Hendra virus(HeV) [10], above 10 µM; in series [11], 1.1 µM.
